Results taken from patent US20250255867A1 (Kadmon Corporation, LLC, priority 2022, published 2025).

Settings: Cohort 3 400 mg QD
Method: All responses were assessed by the investigators.
Reported Adverse Events. […] All-cause mortality data collected during the study were assessed for all enrolled participants. Disease progression related death was not reported as AE.
Number of Participants With Treatment-emergent Adverse Events (TEAEs), and Treatment-emergent Serious Adverse Events (TESAEs). […] TEAEs included both SAEs and non-SAEs. […] Analysis was performed on safety population which included all participants who received at least 1 dose of study medication.

CC(C)NC(=O)COc1cccc(-c2nc(Nc3ccc4[nH]ncc4c3)c3ccccc3n2)c1 [Belumosudil, 2-{3-[4-(1H-indazol-5-ylamino)-2-quinazolinyl]phenoxy}-N-(propan-2-yl) acetamide]
Renal failure: Affected/At Risk: 0/21
Renal failure: Affected/At Risk (%): (0%)
Respiratory syncytial virus infection: # Events: 3
Respiratory syncytial virus infection: Affected/At Risk: 2/21
Respiratory syncytial virus infection: Affected/At Risk (%): (9.52%)
Respiratory tract infection fungal: # Events: 0
Respiratory tract infection fungal: Affected/At Risk: 0/21
Respiratory tract infection fungal: Affected/At Risk (%): (0%)
Respiratory tract infection: # Events: 0
Respiratory tract infection: Affected/At Risk: 0/21
Respiratory tract infection: Affected/At Risk (%): (0%)
Restless legs syndrome: # Events: 0
Restless legs syndrome: Affected/At Risk: 0/21
Restless legs syndrome: Affected/At Risk (%): (0%)
Rosacea: # Events: 0
Rosacea: Affected/At Risk: 0/21
Rosacea: Affected/At Risk (%): (0%)
SAE Abdominal wall haematoma, # events: 1
SAE Abdominal wall haematoma, affected/at risk: 1/21
SAE Acute kidney injury, # events: 0
SAE Acute kidney injury, affected/at risk: 0/21
SAE Acute lymphocytic leukaemia recurrent, # events: 1
SAE Acute lymphocytic leukaemia recurrent, affected/at risk: 1/21
SAE Acute respiratory failure, # events: 0
SAE Acute respiratory failure, affected/at risk: 0/21
SAE Anaphylactic reaction, # events: 0
SAE Anaphylactic reaction, affected/at risk: 0/21
SAE Bacteraemia, # events: 0
SAE Bacteraemia, affected/at risk: 0/21
SAE Cardiac arrest, # events: 1
SAE Cardiac arrest, affected/at risk: 1/21
SAE Cellulitis, # events: 0
SAE Cellulitis, affected/at risk: 0/21
SAE Chronic graft versus host disease in skin, # events: 0
SAE Chronic graft versus host disease in skin, affected/at risk: 0/21
SAE Citrobacter infection, # events: 0
SAE Citrobacter infection, affected/at risk: 0/21
SAE Dyspnoea, # events: 3
SAE Dyspnoea, affected/at risk: 3/21
SAE Embolism, # events: 0
SAE Embolism, affected/at risk: 0/21
SAE Febrile neutropenia, # events: 1
SAE Febrile neutropenia, affected/at risk: 1/21
SAE Graft versus host disease in lung, # events: 1
SAE Graft versus host disease in lung, affected/at risk: 1/21
SAE Hypoxia, # events: 2
SAE Hypoxia, affected/at risk: 2/21
SAE Influenza A virus test positive, # events: 0
SAE Influenza A virus test positive, affected/at risk: 0/21
SAE Influenza like illness, # events: 2
SAE Influenza like illness, affected/at risk: 2/21
SAE Lacunar infarction, # events: 0
SAE Lacunar infarction, affected/at risk: 0/21
SAE Leukaemia recurrent, # events: 1
SAE Leukaemia recurrent, affected/at risk: 1/21
SAE Lipomatosis, # events: 0
SAE Lipomatosis, affected/at risk: 0/21
SAE Metastases to meninges, # events: 0
SAE Metastases to meninges, affected/at risk: 0/21
SAE Muscular weakness, # events: 0
SAE Muscular weakness, affected/at risk: 0/21
SAE Myelodysplastic syndrome, # events: 1
SAE Myelodysplastic syndrome, affected/at risk: 1/21
SAE Non-cardiac chest pain, # events: 0
SAE Non-cardiac chest pain, affected/at risk: 0/21
SAE Obliterative bronchiolitis, # events: 0
SAE Obliterative bronchiolitis, affected/at risk: 0/21
SAE Pericardial effusion, # events: 1
SAE Pericardial effusion, affected/at risk: 1/21
SAE Pleural effusion, # events: 1
SAE Pleural effusion, affected/at risk: 1/21
SAE Pneumonia viral, # events: 1
SAE Pneumonia viral, affected/at risk: 1/21
SAE Pneumonia, # events: 3
SAE Pneumonia, affected/at risk: 3/21
SAE Pregnancy of partner, # events: 1
SAE Pregnancy of partner, affected/at risk: 1/21
SAE Proteinuria, # events: 0
SAE Proteinuria, affected/at risk: 0/21
SAE Respirovirus test positive, # events: 0
SAE Respirovirus test positive, affected/at risk: 0/21
SAE Small intestinal obstruction, # events: 1
SAE Small intestinal obstruction, affected/at risk: 1/21
SAE Stenotrophomonas infection, # events: 0
SAE Stenotrophomonas infection, affected/at risk: 0/21
SAE Urinary retention, # events: 1
SAE Urinary retention, affected/at risk: 1/21
SAE Urinary tract infection, # events: 0
SAE Urinary tract infection, affected/at risk: 0/21
SAE Varicella zoster virus infection, # events: 1
SAE Varicella zoster virus infection, affected/at risk: 1/21
SAE total, affected/at risk: 13/21
Sinus pain: # Events: 0
Sinus pain: Affected/At Risk: 0/21
Sinus pain: Affected/At Risk (%): (0%)
Sinusitis: # Events: 1
Sinusitis: Affected/At Risk: 1/21
Sinusitis: Affected/At Risk (%): (4.76%)
Skin abrasion: # Events: 2
Skin abrasion: Affected/At Risk: 2/21
Skin abrasion: Affected/At Risk (%): (9.52%)
Skin lesion: # Events: 0
Skin lesion: Affected/At Risk: 0/21
Skin lesion: Affected/At Risk (%): (0%)
Skin papilloma: # Events: 0
Skin papilloma: Affected/At Risk: 0/21
Skin papilloma: Affected/At Risk (%): (0%)
Spinal compression fracture: # Events: 0
Spinal compression fracture: Affected/At Risk: 0/21
Spinal compression fracture: Affected/At Risk (%): (0%)
Squamous cell carcinoma of skin: # Events: 0
Squamous cell carcinoma of skin: Affected/At Risk: 0/21
Squamous cell carcinoma of skin: Affected/At Risk (%): (0%)
Stomatitis: # Events: 1
Stomatitis: Affected/At Risk: 1/21
Stomatitis: Affected/At Risk (%): (4.76%)
Superior vena cava syndrome: # Events: 0
Superior vena cava syndrome: Affected/At Risk: 0/21
Superior vena cava syndrome: Affected/At Risk (%): (0%)
Tachycardia: # Events: 2
Tachycardia: Affected/At Risk: 2/21
Tachycardia: Affected/At Risk (%): (9.52%)
Tendonitis: # Events: 0
Tendonitis: Affected/At Risk: 0/21
Tendonitis: Affected/At Risk (%): (0%)
Testicular pain: # Events: 0
Testicular pain: Affected/At Risk: 0/21
Testicular pain: Affected/At Risk (%): (0%)
Testicular swelling: # Events: 0
Testicular swelling: Affected/At Risk: 0/21
Testicular swelling: Affected/At Risk (%): (0%)
Thoracic spinal stenosis: # Events: 0
Thoracic spinal stenosis: Affected/At Risk: 0/21
Thoracic spinal stenosis: Affected/At Risk (%): (0%)
Thrombocytopenia: # Events: 1
Thrombocytopenia: Affected/At Risk: 1/21
Thrombocytopenia: Affected/At Risk (%): (4.76%)
